Assay results published in US12421223B2, “Compounds and compositions for treating conditions associated with NLRP activity” (Novartis AG, priority 2018, dated 2025).

Test system: IL-1β production in PMA-differentiated THP-1 cells
Experiment: IL-1β production in PMA-differentiated THP-1 cells stimulated with gramicidin (hTHP-1 assay, 2% fetal bovine serum)
Type: cell-based
Conditions: Homo sapiens, hTHP-1 assay containing 2% fetal bovine serum, gramicidin 5 μM, IL-1β by HTRF, read-out: THP-1 IC50 (Average IC50 of compounds in hTHP-1 assay)
Procedure: The following protocol is suitable for testing the activity of the compounds disclosed herein.
Procedure 1: IL-1β Production in PMA-Differentiated THP-1 Cells Stimulated with Gramicidin.
THP-1 cells were purchased from the American Type Culture Collection and sub-cultured according to instructions from the supplier. Cells were cultured in complete RPMI 1640 (containing 10% heat inactivated FBS, penicillin (100 units/ml) and streptomycin (100 μg/ml)), and maintained in log phase prior to experimental setup. Prior to the experiment, compounds were dissolved in dimethyl sulfoxide (DMSO) to generate a 30 mM stock. The compound stock was first pre-diluted in DMSO to 3, 0.34, 0.042 and 0.0083 mM intermediate concentrations and subsequently spotted using Echo550 liquid handler into an empty 384-well assay plate to achieve desired final concentration (e.g. 100, 33, 11, 3.7, 1.2, 0.41, 0.14, 0.046, 0.015, 0.0051, 0.0017 μM). DMSO was backfilled in the plate to achieve a final DMSO assay concentration of 0.37%. The plate was then sealed and stored at room temperature until required.
THP-1 cells were treated with PMA (Phorbol 12-myristate 13-acetate) (20 ng/ml) for 16-18 hours. On the day of the experiment the media was removed and adherent cells were detached with trypsin for 5 minutes. Cells were then harvested, washed with complete RPMI 1640, spun down, and resuspended in RPMI 1640 (containing 2% heat inactivated FBS, penicillin (100 units/ml) and streptomycin (100 μg/ml). The cells were plated in the 384-well assay plate containing the spotted compounds at a density of 50,000 cells/well (final assay volume 50 μl). Cells were incubated with compounds for 1 hour and then stimulated with gramicidin (5 μM) (Enzo) for 2 hours. Plates were then centrifuged at 340 g for 5 min. Cell free supernatant (40 μL) was collected using a 96-channel PlateMaster (Gilson) and the production of IL-1β was evaluated by HTRF (cisbio). The plates were incubated for 18 h at 4° C. and read using the preset HTRF program (donor emission at 620 nm, acceptor emission at 668 nm) of the SpectraMax i3x spectrophotometer (Molecular Devices, software SoftMax 6). A vehicle only control and a dose titration of CRID3 (100-0.0017 μM) were run concurrently with each experiment.
Procedure 2: IL-1β Production in PMA-Differentiated THP-1 Cells Stimulated with Gramicidin.
THP-1 cells were purchased from the American Type Culture Collection and sub-cultured according to instructions from the supplier. Prior to experiments, cells were cultured in complete RPMI 1640 (containing 10% heat inactivated FBS, penicillin (100 units/ml) and streptomycin (100 μg/ml)), and maintained in log phase prior to experimental setup. Prior to the experiment THP-1 were treated with PMA (Phorbol 12-myristate 13-acetate) (20 ng/ml) for 16-18 hours. Compounds were dissolved in dimethyl sulfoxide (DMSO) to generate a 30 mM stock. On the day of the experiment the media was removed and adherent cells were detached with trypsin for 5 minutes. Cells were then harvested, washed with complete RPMI 1640, spun down, resuspended in RPMI 1640 (containing 2% heat inactivated FBS, penicillin (100 units/ml) and streptomycin (100 μg/ml). The cells were plated in a 384-well plate at a density of 50,000 cells/well (final assay volume 50 μl). Compounds were first dissolved in assay medium to obtain a 5× top concentration of 500 μM. 10 step dilutions (1:3) were then undertaken in assay medium containing 1.67% DMSO. 5× compound solutions were added to the culture medium to achieve desired final concentration (e.g. 100, 33, 11, 3.7, 1.2, 0.41, 0.14, 0.046, 0.015, 0.0051, 0.0017 μM). Final DMSO concentration was at 0.37%. Cells were incubated with compounds for 1 hour and then stimulated with gramicidin (5 μM) (Enzo) for 2 hours. Plates were then centrifuged at 340 g for 5 min. Cell free supernatant (40 μL) was collected using a 96-channel PlateMaster (Gilson) and the production of IL-1β was evaluated by HTRF (cisbio). […]

| Structure (SMILES) | IC50 [µM] |
| --- | --- |
| CC(C)(O)c1ncc(C(NC(=O)OCc2ccccc2)c2ccn(-c3c4c(cc5c3CCC5)CCC4)n2)s1 (stereo not drawn) [Compound 102, Benzyl (1-(1,2,3,5,6,7-hexahydros-indacen-4-yl)-1H-pyrazol-3-yl)(2-(2-hydroxypropan-2-yl)thiazol-5-yl)methylcarbamate] | 5 to 30 |
| CC(C)(O)c1ncc(C(CNC(=O)c2ccccc2)c2cnn(-c3c4c(cc5c3CCC5)CCC4)c2)s1 (stereo not drawn) [Compound 114] | 5 to 30 |
| CC(C)(O)c1ncc(S(=O)(=O)c2cnn(-c3c4c(cc5c3CCC5)CCC4)c2)s1 [Compound 115, 2-(5-((1-(1,2,3,5,6,7-hexahydro-s-indacen-4-yl)-1H-pyrazol-4-yl)sulfonyl)thiazol-2-yl)propan-2-ol] | 5 to 30 |
| CC(C)(O)c1ncc(C(=O)c2ccn(-c3c4c(cc5c3CCC5)CCC4)n2)s1 [Compound 118] | 5 to 30 |
| CC(C)(O)c1ncc(C(CNC(=O)OCc2ccccc2)c2cnn(-c3c4c(cc5c3CCC5)CCC4)c2)s1 (stereo not drawn) [Compound 101, Benzyl (2-(1-(1,2,3,5,6,7-hexahydro-s-indacen-4-yl)-1H-pyrazol-4-yl)-2-(2-(2-hydroxypropan-2-yl)thiazol-5-yl)ethyl) carbamate] | 1 to 5 |
| CC(C)(O)c1cnc(S(=O)(=O)c2cnn(-c3c4c(cc5c3CCC5)CCC4)c2)s1 [Compound 104, 2-(2-((1-(1,2,3,5,6,7-hexahydro-s-indacen-4-yl)-1H-pyrazol-4-yl)sulfonyl)thiazol-5-yl)propan-2-ol] | 5 to 30 |

Continued, values first:

| IC50 [µM] | Structure (SMILES) |
| --- | --- |
| 5 to 30 | O=C(NCc1cnn(-c2c3c(cc4c2CCC4)CCC3)c1)OCc1ccccc1 [Compound 200, Benzyl ((1-(1,2,3,5,6,7-hexahydro-s-indacen-4-yl)-1H-pyrazol-4-yl)methyl)carbamate] |
| 5 to 30 | CC(C)(O)c1ncc(C(=O)c2ccnn2-c2c3c(cc4c2CCC4)CCC3)s1 [Compound 103] |
| 5 to 30 | CC(C)(O)c1ncc([C@@H](NC(=O)OCc2ccccc2)c2ccn(-c3c4c(cc5c3CCC5)CCC4)n2)s1 (single isomer, unassigned) [Compound 116] |
